Where two headings read alike, the source gives them in different places.
Key:
[1] = target: IGFIR (Homo sapiens (Human), UniProt P08069); test: Kinase panel screening; conditions: read-out: % inhibition rate
Source text: (§1) Measurement of Inhibitory Activity Against Various Protein Kinases

[2] = target: PLK1 (Homo sapiens (Human), UniProt P53350); test: Kinase panel screening; format: biochemical; conditions: read-out: % inhibition rate
[3] = target: ALK (Homo sapiens (Human), UniProt Q9UM73); test: Kinase panel screening; conditions: read-out: % inhibition rate
Source text: as §1

[4] = target: JAK3 (Homo sapiens (Human), UniProt P52333); test: Kinase panel screening; conditions: read-out: % inhibition rate
Source text: as §1

[5] = target: LCK (Homo sapiens (Human), UniProt P06239); test: Kinase panel screening; format: biochemical; conditions: read-out: % inhibition rate
[6] = target: c-MET (Homo sapiens (Human), UniProt P08581); test: Kinase panel screening; conditions: read-out: % inhibition rate
Source text: as §1

[7] = target: FGFR3 (Homo sapiens (Human), UniProt P22607); test: Kinase panel screening; conditions: read-out: % inhibition rate
Source text: as §1

[8] = target: T1, FLT3 (Homo sapiens (Human), UniProt P36888); test: Kinase panel screening; conditions: read-out: % inhibition rate
Source text: as §1

[9] = target: EGFR (Homo sapiens (Human), UniProt P00533); test: Kinase panel screening; conditions: read-out: % inhibition rate
Source text: as §1

[10] = target: FMS (Homo sapiens (Human), UniProt P07333); test: Kinase panel screening; format: biochemical; conditions: read-out: % inhibition rate
[11] = target: CDK2/cyclin E (Homo sapiens (Human), UniProt P24941); test: Kinase panel screening; format: biochemical; conditions: read-out: % inhibition rate
[12] = target: RAFI (Homo sapiens (Human), UniProt P04049); test: Kinase panel screening; conditions: read-out: % inhibition rate
Source text: as §1

[13] = target: LYN (Homo sapiens (Human), UniProt P07948); test: Kinase panel screening; conditions: read-out: % inhibition rate
Source text: as §1

[14] = target: BTK (Homo sapiens (Human), UniProt Q06187); test: Kinase panel screening; conditions: read-out: % inhibition rate
Source text: as §1

[15] = target: MTOR/FRAP1 (Homo sapiens (Human), UniProt P42345); test: Kinase panel screening; format: biochemical; conditions: read-out: % inhibition rate
[16] = target: ERK1 (Homo sapiens (Human), UniProt P27361); test: Kinase panel screening; conditions: read-out: % inhibition rate
Source text: as §1

[17] = target: RON/MSTIR (Homo sapiens (Human), UniProt Q04912); test: Kinase panel screening; conditions: read-out: % inhibition rate
Source text: as §1

[18] = target: P38a/MAPK14 (Homo sapiens (Human), UniProt Q16539); test: Kinase panel screening; conditions: read-out: % inhibition rate
Source text: as §1

[19] = target: CDK1/cyclinB (Homo sapiens (Human), UniProt P06493); test: Kinase panel screening; conditions: read-out: % inhibition rate
Source text: as §1

[20] = target: BRAF (V599E) (Homo sapiens (Human), UniProt P15056, V600E); test: Kinase panel screening; conditions: read-out: % inhibition rate
Source text: as §1

[21] = target: c-Src (Homo sapiens (Human), UniProt P12931); test: Kinase panel screening; conditions: read-out: % inhibition rate
Source text: as §1

[22] = target: KDR/VEGFR2 (Homo sapiens (Human), UniProt P35968); test: Kinase panel screening; format: biochemical; conditions: read-out: % inhibition rate
[23] = target: MEK1 (Homo sapiens (Human), UniProt Q02750); test: Kinase panel screening; conditions: read-out: % inhibition rate
Source text: as §1

[24] = target: SYK (Homo sapiens (Human), UniProt P43405); test: Kinase panel screening; format: biochemical; conditions: single dose of 10 μM, read-out: % inhibition rate
[25] = target: Aurora A (Homo sapiens (Human), UniProt O14965); test: Kinase panel screening; conditions: read-out: % inhibition rate
Source text: as §1

[26] = target: c-Kit (Homo sapiens (Human), UniProt P10721); test: Kinase panel screening; conditions: read-out: % inhibition rate
Source text: as §1

[27] = target: ABL1 (Homo sapiens (Human), UniProt P00519); test: Kinase panel screening; format: biochemical; conditions: read-out: % inhibition rate
[28] = target: FLT1/VEGFR1 (Homo sapiens (Human), UniProt P17948); test: Kinase panel screening; conditions: read-out: % inhibition rate
Source text: as §1

[29] = target: ROS/ROS1 (Homo sapiens (Human), UniProt P08922); test: Kinase panel screening; conditions: read-out: % inhibition rate
Source text: as §1

[30] = target: T1, FLT3; test: Measurement of FLT3 enzyme activity; format: biochemical
Source text: Measurement of FLT3 Enzyme Activity
A change in FLT3 enzyme activity by treatment with the benzimidazole derivatives of the following Table 1 according to the present invention was confirmed by IC50.

[31] = target: JNK3 (Homo sapiens (Human), UniProt P53779); test: Kinase panel screening; conditions: read-out: % inhibition rate
Source text: as §1

[32] = target: PKA (Homo sapiens (Human), UniProt P17612); test: Kinase panel screening; conditions: read-out: % inhibition rate
Source text: as §1

[33] = target: BRAF (Homo sapiens (Human), UniProt P15056); test: Kinase panel screening; conditions: read-out: % inhibition rate
Source text: as §1

[34] = target: GSK3b (Homo sapiens (Human), UniProt P49841); test: Kinase panel screening; format: biochemical; conditions: read-out: % inhibition rate
[35] = target: AKT1 (Homo sapiens (Human), UniProt P31749); test: Kinase panel screening; conditions: read-out: % inhibition rate
Source text: as §1

T1 sequence (P36888 27-993): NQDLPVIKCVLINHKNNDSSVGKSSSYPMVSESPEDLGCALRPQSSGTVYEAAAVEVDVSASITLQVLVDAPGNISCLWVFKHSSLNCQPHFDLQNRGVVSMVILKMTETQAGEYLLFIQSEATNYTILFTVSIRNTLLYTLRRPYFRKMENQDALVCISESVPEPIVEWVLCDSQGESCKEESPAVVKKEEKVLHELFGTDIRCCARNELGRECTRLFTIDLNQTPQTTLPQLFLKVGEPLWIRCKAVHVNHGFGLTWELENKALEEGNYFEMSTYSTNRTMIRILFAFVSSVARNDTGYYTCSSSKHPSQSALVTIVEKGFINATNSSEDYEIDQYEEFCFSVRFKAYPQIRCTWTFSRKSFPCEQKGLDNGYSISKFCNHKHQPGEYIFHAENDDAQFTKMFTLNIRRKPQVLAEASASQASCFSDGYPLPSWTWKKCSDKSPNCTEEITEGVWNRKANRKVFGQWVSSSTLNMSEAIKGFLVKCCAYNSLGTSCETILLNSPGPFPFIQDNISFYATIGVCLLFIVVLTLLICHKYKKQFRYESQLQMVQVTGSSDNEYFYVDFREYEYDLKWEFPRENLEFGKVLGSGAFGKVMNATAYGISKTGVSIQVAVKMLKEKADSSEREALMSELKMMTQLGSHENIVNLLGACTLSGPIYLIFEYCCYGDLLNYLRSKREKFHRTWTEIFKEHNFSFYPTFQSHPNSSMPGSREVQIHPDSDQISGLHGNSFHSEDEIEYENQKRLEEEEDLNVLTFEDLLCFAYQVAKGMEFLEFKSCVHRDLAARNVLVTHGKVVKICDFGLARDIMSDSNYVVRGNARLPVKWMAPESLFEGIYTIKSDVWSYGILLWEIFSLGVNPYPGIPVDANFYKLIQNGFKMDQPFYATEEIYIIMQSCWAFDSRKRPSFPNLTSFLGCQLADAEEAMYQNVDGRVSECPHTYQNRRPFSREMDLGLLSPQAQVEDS
Sequence of LYN (P07948 whole entry): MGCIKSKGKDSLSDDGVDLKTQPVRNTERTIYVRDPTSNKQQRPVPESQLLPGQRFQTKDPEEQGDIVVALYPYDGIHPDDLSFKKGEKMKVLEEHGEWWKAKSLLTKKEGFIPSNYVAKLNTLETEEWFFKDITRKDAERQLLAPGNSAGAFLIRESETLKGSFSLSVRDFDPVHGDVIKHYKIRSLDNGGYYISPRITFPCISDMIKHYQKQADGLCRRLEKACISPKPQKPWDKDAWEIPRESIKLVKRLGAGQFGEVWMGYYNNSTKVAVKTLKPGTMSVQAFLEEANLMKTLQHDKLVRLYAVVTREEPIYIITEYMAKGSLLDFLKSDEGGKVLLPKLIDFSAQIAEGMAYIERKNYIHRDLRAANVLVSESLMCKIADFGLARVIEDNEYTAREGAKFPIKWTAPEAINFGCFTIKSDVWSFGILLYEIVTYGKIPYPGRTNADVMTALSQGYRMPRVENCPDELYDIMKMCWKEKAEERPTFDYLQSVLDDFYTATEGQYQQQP
Sequence of LCK (P06239 whole entry): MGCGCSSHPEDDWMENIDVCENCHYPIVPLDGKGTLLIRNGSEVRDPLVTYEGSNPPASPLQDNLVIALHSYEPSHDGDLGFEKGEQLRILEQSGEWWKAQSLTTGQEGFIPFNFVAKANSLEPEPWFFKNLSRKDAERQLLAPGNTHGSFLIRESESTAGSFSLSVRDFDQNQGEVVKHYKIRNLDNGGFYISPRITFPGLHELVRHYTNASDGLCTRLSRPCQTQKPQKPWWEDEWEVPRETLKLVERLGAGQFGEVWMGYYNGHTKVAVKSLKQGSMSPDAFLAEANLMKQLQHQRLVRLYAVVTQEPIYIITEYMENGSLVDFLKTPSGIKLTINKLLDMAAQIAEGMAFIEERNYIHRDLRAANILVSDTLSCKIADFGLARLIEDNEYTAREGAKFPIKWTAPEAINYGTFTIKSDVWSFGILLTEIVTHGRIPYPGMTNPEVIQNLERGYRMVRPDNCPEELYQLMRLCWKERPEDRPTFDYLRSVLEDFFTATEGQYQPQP
Sequence of Aurora A (O14965 whole entry): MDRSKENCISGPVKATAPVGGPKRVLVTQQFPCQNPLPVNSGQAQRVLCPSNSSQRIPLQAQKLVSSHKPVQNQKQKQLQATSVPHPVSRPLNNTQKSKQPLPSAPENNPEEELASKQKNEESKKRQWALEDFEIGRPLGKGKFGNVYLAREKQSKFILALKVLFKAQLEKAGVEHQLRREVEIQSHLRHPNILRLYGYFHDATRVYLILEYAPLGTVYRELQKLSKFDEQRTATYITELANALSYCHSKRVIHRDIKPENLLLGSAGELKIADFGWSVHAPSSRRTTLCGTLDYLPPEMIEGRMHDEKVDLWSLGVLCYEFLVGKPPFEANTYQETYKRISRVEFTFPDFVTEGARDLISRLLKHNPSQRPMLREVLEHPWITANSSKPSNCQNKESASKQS
Sequence of FLT1/VEGFR1 (P17948 27-1338): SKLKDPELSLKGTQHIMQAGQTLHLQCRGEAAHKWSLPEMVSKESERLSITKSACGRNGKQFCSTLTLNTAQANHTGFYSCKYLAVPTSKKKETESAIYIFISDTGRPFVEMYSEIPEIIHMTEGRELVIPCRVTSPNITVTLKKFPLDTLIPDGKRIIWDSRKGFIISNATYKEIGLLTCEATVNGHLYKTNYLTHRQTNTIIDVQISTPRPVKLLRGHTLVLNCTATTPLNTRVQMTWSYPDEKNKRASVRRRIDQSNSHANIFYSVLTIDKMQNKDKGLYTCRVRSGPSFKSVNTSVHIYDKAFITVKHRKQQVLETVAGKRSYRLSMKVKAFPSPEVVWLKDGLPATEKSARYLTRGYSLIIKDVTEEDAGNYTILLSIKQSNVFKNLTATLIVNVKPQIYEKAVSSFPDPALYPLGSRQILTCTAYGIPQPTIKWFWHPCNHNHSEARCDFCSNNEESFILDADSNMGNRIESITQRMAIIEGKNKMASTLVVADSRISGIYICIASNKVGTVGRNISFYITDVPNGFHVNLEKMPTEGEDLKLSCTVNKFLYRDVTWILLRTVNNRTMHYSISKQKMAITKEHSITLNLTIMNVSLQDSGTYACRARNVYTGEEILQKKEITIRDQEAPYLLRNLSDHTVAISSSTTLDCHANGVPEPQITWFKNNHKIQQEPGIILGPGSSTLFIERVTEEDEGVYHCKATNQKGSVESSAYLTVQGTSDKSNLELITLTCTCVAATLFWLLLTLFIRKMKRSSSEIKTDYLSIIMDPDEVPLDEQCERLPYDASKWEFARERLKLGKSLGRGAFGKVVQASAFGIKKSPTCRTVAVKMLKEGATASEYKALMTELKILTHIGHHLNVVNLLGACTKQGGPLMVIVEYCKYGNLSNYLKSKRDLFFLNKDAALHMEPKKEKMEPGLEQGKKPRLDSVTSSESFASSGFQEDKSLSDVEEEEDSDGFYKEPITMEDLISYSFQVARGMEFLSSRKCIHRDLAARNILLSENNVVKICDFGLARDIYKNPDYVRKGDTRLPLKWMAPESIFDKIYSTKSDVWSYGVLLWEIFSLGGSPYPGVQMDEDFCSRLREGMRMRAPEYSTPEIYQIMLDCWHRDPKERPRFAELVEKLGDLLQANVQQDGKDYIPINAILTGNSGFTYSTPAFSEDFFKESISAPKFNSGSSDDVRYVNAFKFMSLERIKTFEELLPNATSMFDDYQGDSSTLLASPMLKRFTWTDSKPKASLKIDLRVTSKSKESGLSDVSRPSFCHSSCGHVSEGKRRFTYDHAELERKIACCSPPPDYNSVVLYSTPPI
Sequence of GSK3b (P49841 whole entry, species assumed): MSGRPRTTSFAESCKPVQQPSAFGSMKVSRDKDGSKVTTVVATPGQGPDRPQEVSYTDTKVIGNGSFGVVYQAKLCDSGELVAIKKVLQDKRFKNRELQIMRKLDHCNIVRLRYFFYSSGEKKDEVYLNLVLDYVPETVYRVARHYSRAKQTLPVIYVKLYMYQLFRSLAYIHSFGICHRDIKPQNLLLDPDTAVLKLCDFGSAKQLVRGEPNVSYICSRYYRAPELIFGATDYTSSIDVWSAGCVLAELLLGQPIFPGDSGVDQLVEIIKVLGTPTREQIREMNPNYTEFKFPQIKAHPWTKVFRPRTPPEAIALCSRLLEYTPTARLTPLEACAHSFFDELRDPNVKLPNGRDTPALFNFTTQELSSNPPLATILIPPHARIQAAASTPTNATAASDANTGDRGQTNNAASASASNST
Sequence of FGFR3 (P22607 23-806, species assumed): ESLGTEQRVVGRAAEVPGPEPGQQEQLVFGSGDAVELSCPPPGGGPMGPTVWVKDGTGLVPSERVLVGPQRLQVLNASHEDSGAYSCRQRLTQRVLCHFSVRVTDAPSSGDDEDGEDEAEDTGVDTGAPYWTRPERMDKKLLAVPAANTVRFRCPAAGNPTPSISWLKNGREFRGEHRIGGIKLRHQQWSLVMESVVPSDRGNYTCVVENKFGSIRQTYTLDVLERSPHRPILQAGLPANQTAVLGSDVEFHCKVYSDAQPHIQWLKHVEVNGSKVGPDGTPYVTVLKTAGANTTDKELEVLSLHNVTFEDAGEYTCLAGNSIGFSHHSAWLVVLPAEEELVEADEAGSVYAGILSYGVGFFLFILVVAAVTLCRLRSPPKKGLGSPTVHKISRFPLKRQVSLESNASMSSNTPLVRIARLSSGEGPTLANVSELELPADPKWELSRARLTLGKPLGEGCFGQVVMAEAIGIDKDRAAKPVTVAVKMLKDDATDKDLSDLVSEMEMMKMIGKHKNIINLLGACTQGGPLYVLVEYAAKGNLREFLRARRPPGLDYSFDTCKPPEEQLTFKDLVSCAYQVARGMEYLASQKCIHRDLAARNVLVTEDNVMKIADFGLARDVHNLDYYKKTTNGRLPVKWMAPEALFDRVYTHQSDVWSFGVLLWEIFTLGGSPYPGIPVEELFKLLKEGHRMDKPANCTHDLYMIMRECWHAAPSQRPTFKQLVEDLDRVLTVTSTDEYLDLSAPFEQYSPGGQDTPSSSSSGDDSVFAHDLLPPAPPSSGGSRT

Question: For `Cc1oncc1C(=O)Nc1ccc2[nH]c(-c3cc(N4CCOCC4)cc(C(F)(F)F)c3)nc2c1` [Compound 5b, 5-methyl-N-(2-(3-morpholino-5-(trifluoromethyl)phenyl)-1H-benz[d]imidazol-5-yl)isoxazole-4-carboxamide], which inhibition at 10 µM [1] is on record?
Answer: 0%

Question: And the inhibition at 10 µM [2]?
Answer: 2.86%

Question: What about the inhibition at 10 µM [3] of the same compound?
Answer: 0%

Question: And the inhibition at 10 µM [4]?
Answer: 0.94%

Question: What about the inhibition at 10 µM [5] of the same compound?
Answer: 0%

Question: What about the inhibition at 10 µM [6] of the same compound?
Answer: 0%

Question: What about the inhibition at 10 µM [7] of the same compound?
Answer: 0%

Question: And the inhibition at 10 µM [8]?
Answer: 73%

Question: What about the inhibition at 10 µM [9] of the same compound?
Answer: 0%

Question: And the inhibition at 10 µM [10]?
Answer: 0%

Question: And the inhibition at 10 µM [11]?
Answer: 0%

Question: What about the inhibition at 10 µM [12] of the same compound?
Answer: 15.7%

Question: And the inhibition at 10 µM [13]?
Answer: 0%

Question: And the inhibition at 10 µM [14]?
Answer: 19.3%

Question: What about the inhibition at 10 µM [15] of the same compound?
Answer: 0%

Question: And the inhibition at 10 µM [16]?
Answer: 0%

Question: And the inhibition at 10 µM [17]?
Answer: 0%

Question: What about the inhibition at 10 µM [18] of the same compound?
Answer: 0%

Question: What about the inhibition at 10 µM [19] of the same compound?
Answer: 2.76%

Question: And the inhibition at 10 µM [20]?
Answer: 25.2%

Question: And the inhibition at 10 µM [21]?
Answer: 0%

Question: And the inhibition at 10 µM [22]?
Answer: 0%

Question: What about the inhibition at 10 µM [23] of the same compound?
Answer: 0%

Question: What about the inhibition at 10 µM [24] of the same compound?
Answer: 2.18%

Question: What about the inhibition at 10 µM [25] of the same compound?
Answer: 6.4%

Question: What about the inhibition at 10 µM [26] of the same compound?
Answer: 0%

Question: What about the inhibition at 10 µM [27] of the same compound?
Answer: 0%

Question: What about the inhibition at 10 µM [28] of the same compound?
Answer: 0%

Question: What about the inhibition at 10 µM [29] of the same compound?
Answer: 7.4%

Question: And the IC50 ([30]; FLT3 enzyme activity, read-out: FLT3 (IC50))?
Answer: 3 to 10 µM

Question: What about the IC50 ([30]; FLT3 kinase activity, read-out: IC50 against FLT3) of the same compound?
Answer: 7.94 µM

Question: What about the inhibition at 10 µM [31] of the same compound?
Answer: 0%

Question: And the inhibition at 10 µM [32]?
Answer: 2.38%

Question: What about the inhibition at 10 µM [33] of the same compound?
Answer: 0%

Question: What about the inhibition at 10 µM [34] of the same compound?
Answer: 2.8%

Question: What about the inhibition at 10 µM [35] of the same compound?
Answer: 10.9%
